Source: ChEMBL document CHEMBL1909046, “DrugMatrix in vitro pharmacology data”

Assays:
[1] = molecular target: T1, Type-2 angiotensin II receptor (Homo sapiens, UniProt P50052); type: cell-based; conditions: cho-k1; note: in other assays of this panel Not Active means under 50% inhibition at 10 µM
T1 sequence (P50052 whole entry): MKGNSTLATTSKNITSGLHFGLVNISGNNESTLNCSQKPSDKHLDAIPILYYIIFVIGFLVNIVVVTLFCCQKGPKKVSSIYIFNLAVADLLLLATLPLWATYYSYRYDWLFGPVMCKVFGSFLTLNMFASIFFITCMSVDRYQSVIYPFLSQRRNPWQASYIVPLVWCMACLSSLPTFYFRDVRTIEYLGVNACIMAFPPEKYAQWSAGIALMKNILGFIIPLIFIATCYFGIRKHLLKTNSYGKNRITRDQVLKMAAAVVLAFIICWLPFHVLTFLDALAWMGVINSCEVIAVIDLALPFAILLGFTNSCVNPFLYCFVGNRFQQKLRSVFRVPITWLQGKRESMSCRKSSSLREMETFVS

[2] = molecular target: 5-hydroxytryptamine receptor 2B (Homo sapiens, UniProt P41595); type: cell membranes, CHO-K1, Membrane; conditions: cho-k1; note: in other assays of this panel Not Active means under 50% inhibition at 10 µM
5-hydroxytryptamine receptor 2B, sequence (P41595 whole entry): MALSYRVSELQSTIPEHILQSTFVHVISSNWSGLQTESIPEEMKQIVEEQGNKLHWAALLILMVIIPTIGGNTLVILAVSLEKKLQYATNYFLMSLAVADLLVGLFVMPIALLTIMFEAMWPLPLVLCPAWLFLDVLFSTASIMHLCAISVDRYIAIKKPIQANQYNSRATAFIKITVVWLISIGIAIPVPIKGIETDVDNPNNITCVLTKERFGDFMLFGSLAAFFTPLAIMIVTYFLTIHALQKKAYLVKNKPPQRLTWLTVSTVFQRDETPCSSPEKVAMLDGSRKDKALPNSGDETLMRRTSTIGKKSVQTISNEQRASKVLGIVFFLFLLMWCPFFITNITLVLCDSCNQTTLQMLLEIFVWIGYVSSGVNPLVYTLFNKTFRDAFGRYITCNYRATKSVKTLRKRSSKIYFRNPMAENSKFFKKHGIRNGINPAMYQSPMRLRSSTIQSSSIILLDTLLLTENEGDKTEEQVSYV

Substance-P receptor = Substance-P receptor (Homo sapiens, UniProt P25103); type: cell membranes, CHO, Membrane; conditions: cho; note: in other assays of this panel Not Active means under 50% inhibition at 10 µM
Substance-P receptor, sequence (P25103 whole entry): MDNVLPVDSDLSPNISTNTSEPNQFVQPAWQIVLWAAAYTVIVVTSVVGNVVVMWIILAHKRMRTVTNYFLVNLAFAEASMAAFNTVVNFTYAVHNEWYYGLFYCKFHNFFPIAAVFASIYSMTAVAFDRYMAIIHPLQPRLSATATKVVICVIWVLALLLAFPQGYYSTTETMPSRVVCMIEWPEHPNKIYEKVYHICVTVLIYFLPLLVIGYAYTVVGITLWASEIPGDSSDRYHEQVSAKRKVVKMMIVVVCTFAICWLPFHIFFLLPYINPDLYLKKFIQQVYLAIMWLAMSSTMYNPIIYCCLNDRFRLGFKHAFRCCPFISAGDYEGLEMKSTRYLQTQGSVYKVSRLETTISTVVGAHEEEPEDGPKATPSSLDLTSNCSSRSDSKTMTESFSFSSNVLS

[3] = DRUGMATRIX: Glutamate, NMDA, Agonism radioligand binding (ligand: [3H] CGP-39653); type: cell membranes, Rattus norvegicus, Wistar, Cerebral cortex, Membrane; conditions: Not Active = under 50% inhibition at 10 µM
Histamine H2 receptor = Histamine H2 receptor (Homo sapiens, UniProt P25021); type: cell membranes, CHO-K1, Membrane; conditions: cho-k1; note: in other assays of this panel Not Active means under 50% inhibition at 10 µM
Histamine H2 receptor, sequence (P25021 whole entry): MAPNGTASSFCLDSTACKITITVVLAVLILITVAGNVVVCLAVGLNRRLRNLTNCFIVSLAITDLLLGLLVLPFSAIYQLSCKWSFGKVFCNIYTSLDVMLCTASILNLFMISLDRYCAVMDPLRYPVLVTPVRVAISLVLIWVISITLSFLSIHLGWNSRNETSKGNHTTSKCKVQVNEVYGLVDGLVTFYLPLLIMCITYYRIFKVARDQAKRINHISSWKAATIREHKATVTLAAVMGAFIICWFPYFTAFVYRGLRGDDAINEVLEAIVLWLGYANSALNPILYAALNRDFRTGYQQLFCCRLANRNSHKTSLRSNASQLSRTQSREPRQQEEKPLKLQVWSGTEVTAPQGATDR

[4] = DRUGMATRIX: Interleukin IL-1 radioligand binding (ligand: [125I] interleukin 1beta); type: cell membranes, Membrane; conditions: nih3t3; Not Active = under 50% inhibition at 10 µM
Leukotriene C4 synthase = molecular target: T2, Leukotriene C4 synthase (Cavia porcellus, UniProt A6XA80); experiment: biochemical; type: tissue-based, Lung
T2 sequence (A6XA80 whole entry): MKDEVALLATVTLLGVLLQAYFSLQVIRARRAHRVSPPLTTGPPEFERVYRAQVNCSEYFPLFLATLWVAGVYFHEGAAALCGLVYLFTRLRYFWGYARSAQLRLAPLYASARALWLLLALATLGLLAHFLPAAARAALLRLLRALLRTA

[5] = DRUGMATRIX: Phosphodiesterase PDE3 enzyme inhibition (substrate: [3H]cAMP + cAMP); type: tissue-based, Homo sapiens; conditions: platelet; Not Active = under 50% inhibition at 10 µM
[6] = molecular target: T3, Receptor-type tyrosine-protein phosphatase C (Homo sapiens, UniProt P08575); design: species or system Escherichia coli
T3 sequence (P08575 whole entry): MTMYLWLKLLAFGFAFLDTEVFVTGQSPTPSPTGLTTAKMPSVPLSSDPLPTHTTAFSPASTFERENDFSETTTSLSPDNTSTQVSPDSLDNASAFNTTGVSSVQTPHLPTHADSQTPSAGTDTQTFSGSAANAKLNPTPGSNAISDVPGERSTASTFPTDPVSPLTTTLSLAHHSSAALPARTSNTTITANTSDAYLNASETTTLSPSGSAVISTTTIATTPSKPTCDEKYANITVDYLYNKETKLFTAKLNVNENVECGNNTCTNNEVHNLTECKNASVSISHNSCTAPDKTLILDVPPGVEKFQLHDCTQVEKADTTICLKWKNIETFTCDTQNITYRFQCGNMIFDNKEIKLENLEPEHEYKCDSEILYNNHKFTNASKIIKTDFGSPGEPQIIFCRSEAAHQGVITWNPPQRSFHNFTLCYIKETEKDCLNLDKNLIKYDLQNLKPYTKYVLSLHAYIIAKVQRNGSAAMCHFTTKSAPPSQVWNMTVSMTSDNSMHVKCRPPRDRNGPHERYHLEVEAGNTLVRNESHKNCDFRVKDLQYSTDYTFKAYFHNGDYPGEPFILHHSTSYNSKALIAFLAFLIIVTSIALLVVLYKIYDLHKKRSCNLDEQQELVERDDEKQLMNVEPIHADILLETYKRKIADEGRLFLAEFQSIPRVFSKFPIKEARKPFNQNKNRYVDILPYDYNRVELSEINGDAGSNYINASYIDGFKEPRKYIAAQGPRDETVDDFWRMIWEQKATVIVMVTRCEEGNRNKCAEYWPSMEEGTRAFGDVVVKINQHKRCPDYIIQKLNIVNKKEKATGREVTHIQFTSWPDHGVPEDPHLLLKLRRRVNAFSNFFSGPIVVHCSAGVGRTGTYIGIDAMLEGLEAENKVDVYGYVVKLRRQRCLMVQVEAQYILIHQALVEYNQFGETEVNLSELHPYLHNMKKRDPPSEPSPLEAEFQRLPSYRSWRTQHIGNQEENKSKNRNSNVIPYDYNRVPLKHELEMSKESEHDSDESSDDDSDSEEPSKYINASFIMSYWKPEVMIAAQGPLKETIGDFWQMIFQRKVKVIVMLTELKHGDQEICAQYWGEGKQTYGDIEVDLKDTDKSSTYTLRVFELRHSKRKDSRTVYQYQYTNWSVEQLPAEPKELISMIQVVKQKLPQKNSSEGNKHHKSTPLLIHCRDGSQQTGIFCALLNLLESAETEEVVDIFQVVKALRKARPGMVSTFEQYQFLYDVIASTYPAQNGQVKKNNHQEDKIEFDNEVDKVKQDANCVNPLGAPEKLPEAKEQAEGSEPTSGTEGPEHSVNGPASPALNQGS

[7] = DRUGMATRIX: Purinergic P2X radioligand binding (ligand: [3H] alpha, beta-Methylene-ATP); type: cell membranes, Oryctolagus cuniculus, New Zealand albino, Urinary bladder, Membrane; conditions: Not Active = under 50% inhibition at 10 µM
Cytochrome P450 2A6 = molecular target: T4, Cytochrome P450 2A6 (Homo sapiens, UniProt P11509); conditions: bti-tn-5b1-4; note: in other assays of this panel Not Active means under 50% inhibition at 10 µM
T4 sequence (P11509 whole entry): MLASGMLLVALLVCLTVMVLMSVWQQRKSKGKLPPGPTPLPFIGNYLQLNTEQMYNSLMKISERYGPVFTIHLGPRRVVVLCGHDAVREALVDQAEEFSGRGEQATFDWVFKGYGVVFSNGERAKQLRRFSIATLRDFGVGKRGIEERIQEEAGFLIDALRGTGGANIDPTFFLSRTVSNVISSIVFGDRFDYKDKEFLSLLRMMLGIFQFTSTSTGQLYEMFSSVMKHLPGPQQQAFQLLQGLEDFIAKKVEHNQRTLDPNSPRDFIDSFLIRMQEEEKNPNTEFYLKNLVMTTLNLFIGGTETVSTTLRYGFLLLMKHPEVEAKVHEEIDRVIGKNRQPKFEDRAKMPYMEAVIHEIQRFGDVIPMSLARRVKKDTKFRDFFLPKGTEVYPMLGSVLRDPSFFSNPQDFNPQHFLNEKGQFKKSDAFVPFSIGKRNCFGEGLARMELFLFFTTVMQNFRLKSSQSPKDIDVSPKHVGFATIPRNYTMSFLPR

NC(=O)c1ncn([C@@H]2O[C@H](CO)[C@@H](O)[C@H]2O)n1 [RIBAVIRIN]
Not Active: IC50 [1] | IC50 [2] | IC50 (Substance-P receptor) | IC50 [3] | Ki [3] | IC50 (Histamine H2 receptor) | IC50 [4] | Ki [4] | IC50 (Leukotriene C4 synthase) | IC50 [5] | Ki [5] | IC50 [6] | IC50 [7] | Ki [7] | IC50 (Cytochrome P450 2A6) | Ki (Cytochrome P450 2A6)

O=[N+]([O-])c1cc([As](=O)(O)O)ccc1O [ROXARSONE]
Not Active: IC50 [1] | Ki [1] | IC50 [2] | Ki [2] | IC50 (Substance-P receptor) | Ki (Substance-P receptor) | IC50 [3] | Ki [3] | IC50 (Histamine H2 receptor) | Ki (Histamine H2 receptor) | IC50 [4] | Ki [4] | IC50 (Leukotriene C4 synthase) | Ki (Leukotriene C4 synthase) | IC50 [5] | Ki [5] | IC50 [6] | Ki [6] | IC50 [7] | Ki [7] | IC50 (Cytochrome P450 2A6) | Ki (Cytochrome P450 2A6)

CC[C@H]1OC(=O)[C@H](C)[C@@H](O[C@H]2C[C@@](C)(OC)[C@@H](O)[C@H](C)O2)[C@H](C)[C@@H](O[C@@H]2O[C@H](C)C[C@H](N(C)C)[C@H]2O)[C@](C)(O)C[C@@H](C)/C(=N\OCOCCOC)[C@H](C)[C@@H](O)[C@]1(C)O [ROXITHROMYCIN]
Not Active: IC50 [1] | IC50 [2] | IC50 (Substance-P receptor) | IC50 [3] | Ki [3] | IC50 (Histamine H2 receptor) | IC50 [4] | Ki [4] | IC50 (Leukotriene C4 synthase) | IC50 [5] | Ki [5] | IC50 [6] | IC50 [7] | Ki [7] | IC50 (Cytochrome P450 2A6) | Ki (Cytochrome P450 2A6)

NC(=O)c1ccccc1O [SALICYLAMIDE]
Not Active: IC50 [1] | IC50 [2] | IC50 (Substance-P receptor) | IC50 [3] | Ki [3] | IC50 (Histamine H2 receptor) | IC50 [4] | Ki [4] | IC50 (Leukotriene C4 synthase) | IC50 [5] | Ki [5] | IC50 [6] | IC50 [7] | Ki [7] | IC50 (Cytochrome P450 2A6) | Ki (Cytochrome P450 2A6)

Cc1ncc([N+](=O)[O-])n1CC(C)O (configuration not stated) [SECNIDAZOLE]
Not Active: IC50 [1] | IC50 [2] | IC50 (Substance-P receptor) | IC50 [3] | Ki [3] | IC50 (Histamine H2 receptor) | IC50 [4] | Ki [4] | IC50 (Leukotriene C4 synthase) | IC50 [5] | Ki [5] | IC50 [6] | IC50 [7] | Ki [7] | IC50 (Cytochrome P450 2A6) | Ki (Cytochrome P450 2A6)

CC(=O)S[C@@H]1CC2=CC(=O)CC[C@]2(C)[C@H]2CC[C@@]3(C)[C@@H](CC[C@@]34CCC(=O)O4)[C@H]12 [SPIRONOLACTONE]
Not Active: IC50 [1] | IC50 [2] | IC50 (Substance-P receptor) | IC50 [3] | Ki [3] | IC50 (Histamine H2 receptor) | IC50 [4] | Ki [4] | IC50 (Leukotriene C4 synthase) | IC50 [5] | Ki [5] | IC50 [6] | IC50 [7] | Ki [7] | IC50 (Cytochrome P450 2A6) | Ki (Cytochrome P450 2A6)
